Key:
SD rats [1] = assay: Side effects on the kidney (nephrotoxicity) and weight loss accompanying cisplatin administration in rats, with or without ALA (Example 2); assay type: in vivo, rat; conditions: for Effect on side effects of anticancer agent on the kidney: FIGS. 4 to 6
Protocol: Serum creatinine and urea nitrogen value (BUN) were measured from blood samples. Moreover, urine protein was measured from urine samples.
Weight loss which is a side effect on general symptoms as well as a side effect related to the gastrointestinal system was also observed at the same time.
Forty-six 6 weeks-old SD rats (male) were purchased from Japan SLC, Inc. They were conditioned for 7 days after purchase. Body weight measurement, blood collection, and urine collection of each rat were performed at the end of the conditioning period. The experiment was started on the next day with 44 rats. Two individuals that had poor serum creatinine, urea nitrogen value (BUN), and urine protein value at the measurement after conditioning were excluded from the experiment.
In this experiment, experiment groups were divided into the following 4 groups I to IV according to the ALA administration condition. The experiment was otherwise performed similarly to Example 1.
Group I (negative control group): Saline was administered on Day 6 from the start of experiment. They were otherwise kept as usual. n=8
Group II (positive control group): CDDP was administered on Day 6 from the start of experiment. They were otherwise kept as usual. n=14
Group III (“post-administration group”): On Day 6 from the start of experiment, ALA was administered, and then CDDP was administered. ALA was also administered for 10 days from Day 6 to Day 15. They were otherwise kept as usual. n=10
Group IV (“full administration group”): ALA was administered for 15 days from the starting day of experiment to Day 15. On Day 6, ALA was administered, and then CDDP was administered. n=11
The body weight of each rat was measured, and blood and urine collection was carried out on starting day of experiment, Days 6, 7, 9, 11, 13, and 15. The collected blood samples were used for measuring serum creatinine and urea nitrogen value (BUN). In addition, the collected urine samples were used for measuring urine protein. Each rat was also dissected on Day 16, and the kidney was resected and observed.

[2] = tested on: T24 cells (human transitional cell bladder cancer cells); assay: Cell toxicity of cisplatin against T24 cells with or without ALA (WST-8, Cell Counting Kit-8); assay type: cell-based; conditions: ALA hydrochloride salt 200 μM + sodium ferrous citrate 100 μM, any timing, FIG. 8
Protocol: (§1) It was validated whether or not ALA administration has an influence on the cell toxicity (anticancer effect) of anticancer agent against cancer cells.
(§2) The following cancer cells were employed in this experiment: T24 cells (human transitional cell bladder cancer cells) and 253J-BV cells (human urinary tract epithelium cancer cells). […] ALA hydrochloride salt was employed as ALA. In addition, sodium ferrous citrate was administered together with ALA administration.
(§3) Cell toxicity at each concentration was compared in the following Groups I to IV.
(§4) Group I: “No addition group,” i.e. the group with no ALA administered
(§5) Group II: “Pre-administration group,” i.e. the group with ALA administered only “during preculture”
(§6) (1) T24 cells (human transitional cell bladder cancer cells) or 253J-BV cells (human urinary tract epithelium cancer cells) were cultured with a 10 cm dish in DMEM medium comprising 10% FBS to a subconfluent state. They were then collected by trypsin treatment.
(§7) (2) For test groups Group I (no addition group) and Group III (simultaneous administration group), the cells collected in (1) were suspended to a density of 50000 cells/ml in DMEM medium comprising 10% FBS. […]

[3] = tested on: 253J-BV cells (human urinary tract epithelium cancer cells); assay: Cell toxicity of cisplatin against 253J-BV cells with or without ALA (WST-8, Cell Counting Kit-8); assay type: cell-based; conditions: ALA hydrochloride salt 200 μM + sodium ferrous citrate 100 μM, any timing, FIG. 9
Protocol: as §1, §2, §3, §4, §5, §6, §7

SD rats [4] = assay: Side effects accompanying cisplatin administration in rats, with or without ALA (Example 1: survival, kidney HE staining, hair luster, stool state, activity); assay type: in vivo, rat; conditions: for Damage to the kidney (HE staining, Day 16): FIG. 2
Protocol: Forty-four 6 weeks-old SD rats (male) were purchased from Japan SLC, Inc. They were used for experiments after conditioning for 7 days after purchase.
The experiment duration was a total of 16 days, and experiment groups were divided into the following 5 groups I to V according to the ALA administration condition. […] CDDP administration dose was 8.0 mg/kg of body weight, and each rat was intraperitoneally administered. Saline was administered instead of cisplatin to Group I as the negative control group. ALA was also administered to Groups III, […], and V according to the following schedule. On the other hand, no ALA was administered to the positive control group (Group II). ALA administration to Groups III, IV, and V was performed by daily oral administration of 10 mg/kg of body weight of ALA hydrochloride salt+15.7 mg/kg of body weight of sodium ferrous citrate (dissolved in distilled water and sodium bicarbonate).
(ALA Administration Conditions of Groups I to V)
Group I (negative control group): Saline was administered on Day 6 from the start of experiment. They were otherwise kept as usual. n=4
Group II (positive control group): CDDP was administered on Day 6 from the start of experiment. They were otherwise kept as usual. n=10
Group III (“pre-administration group”): ALA was administered for a total of 5 days from the starting day of experiment to Day 5. CDDP was also administered on Day 6. They were otherwise kept as usual. n=10
Group IV (“post-administration group”): On Day 6 from the start of experiment, ALA was administered, and then CDDP was administered. ALA was also administered for 10 days from Day 6 to Day 15. They were otherwise kept as usual. n=9
Group V (“full administration group”): ALA was administered for 15 days from the starting day of experiment to Day 15. On Day 6, ALA was administered, and then CDDP was administered. n=9
Blood was collected every two days for 15 days from the starting day of experiment to Day 15. Observation of hair luster, stool state, and activity of rats was also carried out. Each rat was also dissected on Day 16, and the kidney was resected. Kidney sections were prepared after resection, and observed under a microscope after HE staining.
Side effects were strongly observed from Day 9 to Day 13 from the starting day of experiment. Accordingly, the state on Days 9, 11, and 13 were scored and evaluated. Hair luster here evaluates the side effect related to skin symptoms. Stool state evaluates the side effect related to the gastrointestinal system. Activity evaluates the side effect related to general symptoms, in particular evaluates the side effect related to malaise.
Each item was evaluated for each mouse by the following criteria, and is the numerical value of the sum of the three days (Days 9, 11, and 13) divided by the number of evaluation subject mice.
5: Very good, 4: ordinarily state, 3: slightly poor, 2: poor, and 1: death
5: Ordinarily stool, 4: small amount of stool, 3: slight diarrhea, 2: diarrhea, and 1: death
5: Ordinarily state, 4: weak movement, 3: slight movement, 2: no movement, and 1: death

[5] = Case of an advanced colon cancer patient taking aminolevulinic acid phosphate salt and sodium ferrous citrate concurrently with anticancer agent therapy (Example 4); assay type: in vivo, human; conditions: one patient
[6] = Group III (pre-administration): ALA hydrochloride salt 10 mg/kg + sodium ferrous citrate 15.7 mg/kg oral daily to Day 5, CDDP 8.0 mg/kg i.p. Day 6, sum of scores of Days 9, 11, 13 per animal
[7] = Group IV (post-administration): ALA hydrochloride salt 10 mg/kg + sodium ferrous citrate 15.7 mg/kg oral daily Day 6 to Day 15, CDDP 8.0 mg/kg i.p. Day 6, sum of scores of Days 9, 11, 13 per animal
[8] = Group V (full administration): ALA hydrochloride salt 10 mg/kg + sodium ferrous citrate 15.7 mg/kg oral daily from starting day to Day 15, CDDP 8.0 mg/kg i.p. Day 6, sum of scores of Days 9, 11, 13 per animal
[9] = Groups III, IV and V (ALA + CDDP) versus Group II, FIG. 1

Compound: NCC(=O)CCC(=O)O [ALA, 5-aminolevulinic acid]
- Effect on weight loss (SD rats [1]; Group III (post-administration) + CDDP, FIG. 3): a certain effect
- Effect on side effects of anticancer agent on the kidney (SD rats [1]; Group III (post-administration) + CDDP): a certain effect
- Decrease in body weight (SD rats [1]; Group III (post-administration) and Group IV (full administration), ALA + CDDP, FIG. 3): decreased in body weight due to the side effects from anticancer agent was suppressed
- Re-increase of body weight (SD rats [1]; Group III and Group IV, ALA + CDDP, FIG. 3): re-increase of body weight was observed on Day 5 and after
- Urine protein value (SD rats [1]; Group III and Group IV, ALA + CDDP, slight increase on Day 3, FIG. 6): a value not much different from the negative control group was maintained
- Serum creatinine value (SD rats [1]; Group III and Group IV, ALA + CDDP, slight increase on Day 5, FIG. 4): a value not much different from the negative control group was maintained
- Urea nitrogen value (BUN) (SD rats [1]; Group III and Group IV, ALA + CDDP, slight increase on Day 5, FIG. 5): a value not much different from the negative control group was maintained
- Effect on weight loss (SD rats [1]; Group IV (full administration) + CDDP, FIG. 3): the most effective
- Effect on side effects of anticancer agent on the kidney (SD rats [1]; Group IV (full administration) + CDDP): the most effective
- Influence of ALA administration on anticancer effect of cisplatin [2]: hardly attenuated
- Influence of ALA administration on anticancer effect of cisplatin [3]: hardly attenuated
- Damage to the kidney (HE staining, Day 16) (SD rats [4]; ALA-administered groups + CDDP): alleviated the damage to the kidney
- Damage to the kidney (HE staining, Day 16) (SD rats [4]; Group III (pre-administration) and Group IV (post-administration) + CDDP): a certain effect
- Rat survival rate (SD rats [4]; Group III (pre-administration) or Group IV (post-administration) + CDDP, FIG. 1): a certain suppression effect
- Activity (final evaluation) (SD rats [4]; [6]): 8.10
- Hair luster (final evaluation) (SD rats [4]; [6]): 8.10
- Overall evaluation (final evaluation) (SD rats [4]; [6]): 7.50
- Stool state (final evaluation) (SD rats [4]; [6]): 8.90
- Activity (final evaluation) (SD rats [4]; [7]): 9.56
- Hair luster (final evaluation) (SD rats [4]; [7]): 8.89
- Overall evaluation (final evaluation) (SD rats [4]; [7]): 8.78
- Stool state (final evaluation) (SD rats [4]; [7]): 10.78
- Damage to the kidney (HE staining, Day 16) (SD rats [4]; Group V (full administration) + CDDP): the most effective
- Activity (final evaluation) (SD rats [4]; [8]): 11.33
- Hair luster (final evaluation) (SD rats [4]; [8]): 11.33
- Overall evaluation (final evaluation) (SD rats [4]; [8]): 9.67
- Stool state (final evaluation) (SD rats [4]; [8]): 13.33
- Rat survival rate (SD rats [4]; Group V (full administration, ALA throughout) + CDDP, FIG. 1): highest survival rate
- Rat survival rate until Day 16 (SD rats [4]; [9]): reduction in the survival rate until Day 16 could be suppressed
- Timing of the start of reduction in the survival rate (SD rats [4]; [9]): the timing of the start of reduction in the survival rate was delayed

Compound: N.N.[Cl][Pt][Cl] [cisplatin, reference compound]
- Rat survival rate (SD rats [4]; Group II (positive control): CDDP 8.0 mg/kg i.p. Day 6, no ALA, FIG. 1): reduction in the survival rate was seen on Day 9
- Hair luster (final evaluation) (SD rats [4]; Group II (positive control): CDDP 8.0 mg/kg i.p. on Day 6, no ALA, sum of scores (5 best, 1 death) of Days 9, 11, 13 divided by number of animals): 7.80

Compound: aminolevulinic acid phosphate salt
- Time for which anticancer agent therapy could be continued after the surgery ([5]; FOLFOX, FOLFIRI and Avastin with oral 50 mg aminolevulinic acid phosphate salt + 57.4 mg sodium ferrous citrate per day): one year
- Hemoglobin ([5]; Jan. 28, 2011, about 1 year and 5 months after starting oral 50 mg aminolevulinic acid phosphate salt + 57.4 mg sodium ferrous citrate per day, just before surgery 9.80): 12.20 g/dL
- Number of Leukocytes ([5]; Jan. 28, 2011, about 1 year and 5 months after starting oral 50 mg aminolevulinic acid phosphate salt + 57.4 mg sodium ferrous citrate per day, just before surgery 13.20): 6200 µL⁻¹
- Number of Erythrocytes ([5]; Jan. 28, 2011, about 1 year and 5 months after starting oral 50 mg aminolevulinic acid phosphate salt + 57.4 mg sodium ferrous citrate per day, just before surgery (Aug. 19, 2009) 2.97): 3.44e+06 µL⁻¹
- Anemia improvement effect ([5]; about 1 year and 5 months after starting intake, with sodium ferrous citrate): anemia as a side effect of administration of anticancer agent is improved
- Survival after surgery ([5]; declared life expectancy 3 months, oral 50 mg aminolevulinic acid phosphate salt + 57.4 mg sodium ferrous citrate per day): one and a half years
